Experiment: xn = mol fraction of the nth substance listed
Settings: for surface tension liquid-gas: Wilhelmy-plate method; for mass density: 100 kPa, Liquid, Vibrating tube method

CC(O)CO (stereo not given) [1,2-propanediol] + CC(C)O
Settings | mass density, 298.15 K [kg/m3] | mass density, 308.15 K [kg/m3] | mass density, 318.15 K [kg/m3] | mass density, 328.15 K [kg/m3] | surface tension liquid-gas, 298.15 K [mN/m] | surface tension liquid-gas, 308.15 K [mN/m] | surface tension liquid-gas, 318.15 K [mN/m] | surface tension liquid-gas, 328.15 K [mN/m]
x2 = 0 | 1032.69 | 1025.21 | 1017.51 | 1009.78 | 35.74 | 35.35 | 34.96 | 34.6
x2 = 0.05 | 1020.3 | 1012.75 | 1005.08 | 997.4 | 32.86 | 32.56 | 32.35 | 32.15
x2 = 0.1 | 1007.84 | 1000.22 | 992.51 | 984.7 | 31.27 | 30.98 | 30.74 | 30.54
x2 = 0.15 | 995.3 | 987.63 | 979.84 | 971.99 | 30.1 | 29.77 | 29.48 | 29.26
x2 = 0.2 | 982.74 | 974.98 | 967.11 | 959.2 | 29.09 | 28.74 | 28.42 | 28.18
x2 = 0.25 | 970.17 | 962.34 | 954.39 | 946.41 | 28.21 | 27.85 | 27.51 | 27.25
x2 = 0.3 | 957.54 | 949.69 | 941.69 | 933.61 | 27.43 | 27.04 | 26.68 | 26.4
x2 = 0.35 | 944.87 | 936.95 | 928.9 | 920.73 | 26.72 | 26.31 | 25.94 | 25.64
x2 = 0.4 | 932.21 | 924.2 | 916.09 | 907.91 | 26.06 | 25.64 | 25.25 | 24.93
x2 = 0.45 | 919.52 | 911.47 | 903.3 | 895.1 | 25.43 | 25.01 | 24.64 | 24.3
x2 = 0.5 | 906.84 | 898.7 | 890.5 | 882.26 | 24.89 | 24.47 | 24.05 | 23.71
x2 = 0.55 | 894.16 | 885.97 | 877.7 | 869.44 | 24.39 | 23.94 | 23.52 | 23.16
x2 = 0.6 | 881.5 | 873.25 | 865 | 856.69 | 23.89 | 23.44 | 23.01 | 22.64
x2 = 0.65 | 868.82 | 860.56 | 852.29 | 843.93 | 23.43 | 22.95 | 22.51 | 22.12
x2 = 0.7 | 856.16 | 847.8 | 839.59 | 831.21 | 22.99 | 22.49 | 22.03 | 21.62
x2 = 0.75 | 843.49 | 835.09 | 826.8 | 818.53 | 22.58 | 22.04 | 21.56 | 21.13
x2 = 0.8 | 830.89 | 822.4 | 813.99 | 805.71 | 22.2 | 21.63 | 21.11 | 20.65
x2 = 0.85 | 818.33 | 809.75 | 801.22 | 792.81 | 21.82 | 21.21 | 20.66 | 20.16
x2 = 0.9 | 805.84 | 797.18 | 788.63 | 780.09 | 21.47 | 20.82 | 20.23 | 19.68
x2 = 0.95 | 793.45 | 784.7 | 776.1 | 767.47 | 21.12 | 20.43 | 19.8 | 19.21

From the NIST ThermoML archive (doi:10.1016/j.fluid.2014.12.040)
